Experimental data published in US20220264878A1, “HERBICIDAL COMPOSITION CONTAINING R-TYPE PYRIDYLOXY CARBOXYLIC ACID DERIVATIVE AND USE THEREOF” (Qingdao Kingagroot Chemical Compound Co., Ltd., priority 2019, published 2022).

What was measured:
Format in all cases: in vivo
Abutilon theophrasti = experiment: Post-emergence foliage spray, pot culture, fresh weight inhibition (Tables 1-48, 51-98, 101-148; 24 days)
How it was run: (§1)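 Greenhouse pot plants (20–30 °C, natural light, 57–72% RH) were sprayed once on foliage at 450 kg/ha and 0.3 MPa, at the 5–6-leaf (grass) or 6–7-leaf (broadleaf) stage. Compounds were in acetone diluted with 0.1% Tween-80 water. Surviving shoots were weighed at 24 days; dead plants counted as zero.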

Alopecurus japonicus = experiment: as above
How it was run: as §1

Eleusine indica = experiment: as above
How it was run: as §1

Ipomoea purpurea = experiment: as above; details: Table 98
How it was run: as §1

Setaria glauca = experiment: as above; details: Table 84
How it was run: as §1

Sonchus arvensis = experiment: as above
How it was run: as §1

[1] = test system: Veronica persica^2 (collected in Zhumadian of Henan Province); experiment: as above
How it was run: as §1

Amaranthus retroflexus = experiment: as above
How it was run: as §1

Conyza Canadensis [2] = experiment: as above
How it was run: as §1

Setaria viridis = experiment: as above; details: A = A2 alone, g a.i./ha: r10 60, r11 60, r12 30, r13 30
How it was run: as §1

Conyza Canadensis [3] = experiment: Post-emergence foliage spray on Conyza Canadensis with a height of 10 cm, fresh weight inhibition (Tables 207-216; 24 days); details: 24 days after treatment
Protocol: The above weeds were cultivated by a pot culture method. […] Full and uniform weed seeds were selected, soaked in warm water at 25° C. for 6 hours, and germinated in a 28° C. biochemical incubator (darkness). The weed seeds that had just germinatedwere evenly placed on the surface of the soil and then covered with 0.5-1 cm soil according to the sizes of seeds.
The technical materials were all dissolved in acetone, and diluted with an aqueous solution containing 0.1% emulsifier Tween-80. The dilution is performed as required.
A ratio of the active ingredient A to the active ingredient B and amounts thereof in each group depends on the characteristics and toxicity of the two agents, as well as the main application purpose of a corresponding formulation. Based on the pre-tests in this study, the dosage of the active ingredient A and B applied alone and in combination were shown in the tables. Water containing the solvent and emulsifier same with the above groups but free of the agents was used as a blank control.
In the stage of weeds with 6˜8 leaves, the weeds were thinned out to maintain 3 weeds per pot and 30 weeds for each treatment, then continued to be cultured to Conyza Canadensis with a height of 10 cm, and treated.
The well-cultured weeds were evenly placed on a platform with an area of 0.5 m^2, and a solution of agents was sprayed on the stems and leaves thereof by the 3WP-2000-type walking spray tower at a dosage of 450 kg/ha and at a spray pressure of 0.3 MPa. After all the solution was sprayed, the valve was closed. After 30 seconds, the door of the spray tower was opened, and the nutritional bowl was taken out. Then the valve was opened, and the spray tube was cleaned by spraying 50 ml of water.
A pot-culture method was employed. For the cultivation of weeds, please refer to the Section 1.1), and “Pesticide guidelines for laboratory bioactivity tests—herbicides”. As to a method for applying agents, please refer to the section 2.3.2), that is, a foliage treatment was employed. After the treatment, the weeds were routinely cultured in a greenhouse.
A method for investigating absolute number was employed, wherein whole seedlings of survival weeds were cut off with a blade along the soil surface, and the fresh weight of the weeds was weighed with an analytical balance. For dead weeds, the fresh weight thereof was zero.
Wherein, in the formula, X represented the fresh weight inhibition rate of the active ingredient A in a dosage of P, and Y represented the fresh weight inhibition rate of the active ingredient B in a dosage of Q.

## C[C@@H](Oc1nc(F)c(Cl)c(N)c1Cl)C(=O)O [Compound A1]
Abutilon theophrasti; A1 7.5 g a.i./ha
  Control effect (%) of A applied alone in corresponding dose: 44.3%
Abutilon theophrasti; A1 15 g a.i./ha
  Control effect (%) of A applied alone in corresponding dose: 79.6%
Alopecurus japonicus; A1 7.5 g a.i./ha
  Control effect (%) of A applied alone in corresponding dose: 25.6%
Alopecurus japonicus; A1 15 g a.i./ha
  Control effect (%) of A applied alone in corresponding dose: 48.1%
Alopecurus japonicus; A1 75 g a.i./ha
  Control effect (%) of A applied alone in corresponding dose: 25.6%
Alopecurus japonicus; A1 150 g a.i./ha
  Control effect (%) of A applied alone in corresponding dose: 48.1%
Eleusine indica; Table 79, 75 g a.i./ha
  Control effect (%) of A applied alone in corresponding dose: 24.4%
Eleusine indica; Table 79, 150 g a.i./ha
  Control effect (%) of A applied alone in corresponding dose: 52.2%
Eleusine indica; Table 82, 75 g a.i./ha
  Control effect (%) of A applied alone in corresponding dose: 24.4%
Eleusine indica; Table 82, 150 g a.i./ha
  Control effect (%) of A applied alone in corresponding dose: 52.2%
Eleusine indica; Table 83, 75 g a.i./ha
  Control effect (%) of A applied alone in corresponding dose: 24.4%
Eleusine indica; Table 83, 150 g a.i./ha
  Control effect (%) of A applied alone in corresponding dose: 52.2%
Ipomoea purpurea; 75 g a.i./ha
  Control effect (%) of A applied alone in corresponding dose: 37.7%
Ipomoea purpurea; 150 g a.i./ha (r12), r13 prints 75 + 7.5, A:B 20:1
  Control effect (%) of A applied alone in corresponding dose: 59.5%
Setaria glauca; 30 g a.i./ha
  Control effect (%) of A applied alone in corresponding dose: 34.7%
Setaria glauca; 60 g a.i./ha
  Control effect (%) of A applied alone in corresponding dose: 57.6%
Sonchus arvensis; A1 30 g a.i./ha
  Control effect (%) of A applied alone in corresponding dose: 33.3%
Sonchus arvensis; A1 60 g a.i./ha
  Control effect (%) of A applied alone in corresponding dose: 70.7%
[1]; Table 87, 75 g a.i./ha
  Control effect (%) of A applied alone in corresponding dose: 19.6%
[1]; Table 87, 150 g a.i./ha
  Control effect (%) of A applied alone in corresponding dose: 42.4%
[1]; Table 88, 75 g a.i./ha
  Control effect (%) of A applied alone in corresponding dose: 19.6%
[1]; Table 88, 150 g a.i./ha
  Control effect (%) of A applied alone in corresponding dose: 42.4%
[1]; Table 90, 75 g a.i./ha
  Control effect (%) of A applied alone in corresponding dose: 19.6%
[1]; Table 90, 150 g a.i./ha
  Control effect (%) of A applied alone in corresponding dose: 42.4%

## C[C@@H](Oc1nc(F)c(Cl)c(N)c1Cl)C(=O)OCC1CCCO1 (some centres unmarked) [Compound A2]
Amaranthus retroflexus; A2 75 g a.i./ha
  Control effect (%) of A applied alone in corresponding dose: 22.9%
Amaranthus retroflexus; A2 150 g a.i./ha
  Control effect (%) of A applied alone in corresponding dose: 52.4%
Conyza Canadensis [2]; A2 75 g a.i./ha
  Control effect (%) of A applied alone in corresponding dose: 36.7%
Conyza Canadensis [2]; A2 150 g a.i./ha
  Control effect (%) of A applied alone in corresponding dose: 57.2%
Setaria viridis; A2 alone at 30 g a.i./ha
  Control effect (%) of A applied alone in corresponding dose: 32.7%
Setaria viridis; A2 alone at 60 g a.i./ha
  Control effect (%) of A applied alone in corresponding dose: 56.3%
Conyza Canadensis [3]; A alone 60 g a.i./ha
  Control effect (%) of A applied alone in corresponding dose: 22.6%
Conyza Canadensis [3]; A alone 120 g a.i./ha
  Control effect (%) of A applied alone in corresponding dose: 47.9%
